These results are taken from ChEMBL document CHEMBL4196112, “Design of Selective sPLA2-X Inhibitor (-)-2-{2-[Carbamoyl-6-(trifluoromethoxy)-1H-indol-1-yl]pyridine-2-yl}propanoic Acid” (ACS Med Chem Lett, 2018).

Activity calls are given as the source filed them. The rule behind the calls is not given here.

For assay [1], the target named is T1, Group 10 secretory phospholipase A2 (Homo sapiens, UniProt O15496).
T1 sequence (O15496 whole entry): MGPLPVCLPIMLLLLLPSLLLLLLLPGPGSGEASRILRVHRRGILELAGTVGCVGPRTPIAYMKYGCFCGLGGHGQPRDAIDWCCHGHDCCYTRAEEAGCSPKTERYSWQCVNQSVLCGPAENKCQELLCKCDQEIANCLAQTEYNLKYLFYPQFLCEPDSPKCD
The assay is described as follows: Inhibition of sPLA2-10 (unknown origin) using 1-palmitoyl-2-oleoyl-sn-glycero-3-phosphocholine as substrate pretreated for 20 mins followed by substrate addition and measured after 60 mins by NEFA based assay.

Assay [2] concerns the target Phospholipase A2, membrane associated (Homo sapiens) (UniProt P14555). The experiment in a line: Inhibition of sPLA2-2A (unknown origin) at 10 uM using 1-palmitoyl-2-oleoyl-sn-glycero-3-phosphocholine as substrate pretreated for 20 mins followed by substrate addition and measured after 60 mins by NEFA based assay.
In assay [3] the target is T2, Phospholipase A2 group V (Homo sapiens) (UniProt P39877).
T2 sequence (whole entry): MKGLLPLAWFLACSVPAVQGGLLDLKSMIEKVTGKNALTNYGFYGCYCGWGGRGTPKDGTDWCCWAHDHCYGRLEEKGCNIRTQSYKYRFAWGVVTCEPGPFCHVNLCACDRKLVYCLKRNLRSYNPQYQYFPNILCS
The experiment in a line: Inhibition of sPLA2-5 (unknown origin) at 10 uM using 1-palmitoyl-2-oleoyl-sn-glycero-3-phosphocholine as substrate pretreated for 20 mins followed by substrate addition and measured after 60 mins by NEFA based assay.

In assay [4] the test system is Mus musculus. The assay is described as follows: Anti-atherosclerosis activity in ApoE knockout pro-atherogenic western diet-induced Tac mouse carotid artery ligation model of atherosclerosis assessed as reduction in coronary flow reserve at 75 to 150 umol/kg/day mixed with food measured for 3 weeks by doppler echocardiography. Type of assay: functional, organism-based.

For assay [5], the species on record is Homo sapiens. The assay is described as follows: Selectivity ratio of IC50 for sPLA2-2A (unknown origin) to IC50 for sPLA2-10 (unknown origin).
The species named for assay [6] is Homo sapiens. The experiment in a line: Selectivity ratio of IC50 for sPLA2-5 (unknown origin) to IC50 for sPLA2-10 (unknown origin).
Assay [7] deals with Group 10 secretory phospholipase A2 (Mus musculus) (UniProt Q9QXX3). The experiment in a line: Inhibition of mouse sPLA2-10.
Assay [8] deals with Mus musculus. The assay is described as follows: Anti-atherosclerosis activity in ApoE knockout pro-atherogenic western diet-induced Tac mouse carotid artery ligation model of atherosclerosis assessed as reduction in plasma free cholesterol levels at 75 umol/kg/day mixed with food measured for 3 weeks. Type of assay: functional, organism-based.
Assay [9] has as its system Mus musculus. The assay is described as follows: Anti-atherosclerosis activity in ApoE knockout pro-atherogenic western diet-induced Tac mouse carotid artery ligation model of atherosclerosis assessed as reduction in plasma triglyceride levels at 75 umol/kg/day mixed with food measured for 3 weeks. Type of assay: functional, organism-based.
For assay [10], the system named is Mus musculus. The experiment in a line: Anti-atherosclerosis activity in ApoE knockout pro-atherogenic western diet-induced Tac mouse carotid artery ligation model of atherosclerosis assessed as reduction in plasma free fatty acid levels at 75 umol/kg/day mixed with food measured for 3 weeks. Type of assay: functional, organism-based.
Assay [11] has as its system Mus musculus. The assay is described as follows: Anti-atherosclerosis activity in ApoE knockout pro-atherogenic western diet-induced Tac mouse carotid artery ligation model of atherosclerosis assessed as reduction in plasma esterified cholesterol levels at 75 umol/kg/day mixed with food measured for 3 weeks. It counts as functional, organism-based.
In assay [12] the test system is Mus musculus. The experiment in a line: Anti-atherosclerosis activity in ApoE knockout pro-atherogenic western diet-induced Tac mouse carotid artery ligation model of atherosclerosis assessed as reduction in plasma lipoprotein-associated cholesterol fraction levels at 75 umol/kg/day mixed with food measured for 3 weeks. Type of assay: functional, organism-based.

Assay [13] relates to Mus musculus. The experiment in a line: Anti-atherosclerosis activity in ApoE knockout pro-atherogenic western diet-induced Tac mouse carotid artery ligation model of atherosclerosis assessed as reduction in plasma triglyceride levels at 150 umol/kg/day mixed with food measured for 3 weeks. Type of assay: functional, organism-based.
Assay [14] has as its system Mus musculus. The experiment in a line: Anti-atherosclerosis activity in ApoE knockout pro-atherogenic western diet-induced Tac mouse carotid artery ligation model of atherosclerosis assessed as reduction in plasma free fatty acid levels at 150 umol/kg/day mixed with food measured for 3 weeks. It counts as functional, organism-based.
Assay [15] deals with Mus musculus. The experiment in a line: Anti-atherosclerosis activity in ApoE knockout pro-atherogenic western diet-induced Tac mouse carotid artery ligation model of atherosclerosis assessed as reduction in plasma esterified cholesterol levels at 150 umol/kg/day mixed with food measured for 3 weeks. Type of assay: functional, organism-based.
Assay [16] concerns Mus musculus. The experiment in a line: Anti-atherosclerosis activity in ApoE knockout pro-atherogenic western diet-induced Tac mouse carotid artery ligation model of atherosclerosis assessed as reduction in plasma free cholesterol levels at 150 umol/kg/day mixed with food measured for 3 weeks. It counts as functional, organism-based.
Assay [17] concerns Mus musculus. The experiment in a line: Anti-atherosclerosis activity in ApoE knockout pro-atherogenic western diet-induced Tac mouse carotid artery ligation model of atherosclerosis assessed as reduction in plasma lipoprotein-associated cholesterol fraction levels at 150 umol/kg/day mixed with food measured for 3 weeks. It counts as functional, organism-based.
The subject of assay [18] is Mus musculus. The assay is described as follows: Anti-atherosclerosis activity in ApoE knockout pro-atherogenic western diet-induced Tac mouse carotid artery ligation model of atherosclerosis assessed as reduction in heart rate at 75 to 150 umol/kg/day mixed with food measured for 3 weeks by doppler echocardiography. It counts as functional, organism-based.
Assay [19] relates to Mus musculus. The experiment in a line: Anti-atherosclerosis activity in ApoE knockout pro-atherogenic western diet-induced Tac mouse carotid artery ligation model of atherosclerosis assessed as reduction in thickness of artery wall at 75 to 150 umol/kg/day mixed with food measured for 3 weeks by ultrasound biomicroscopy. It counts as functional, organism-based.
Assay [20] deals with Mus musculus. The experiment in a line: Anti-atherosclerosis activity in ApoE knockout pro-atherogenic western diet-induced Tac mouse carotid artery ligation model of atherosclerosis assessed as increase in lumen thickness at 75 to 150 umol/kg/day mixed with food measured for 3 weeks by ultrasound biomicroscopy. It counts as functional, organism-based.
The subject of assay [21] is Mus musculus. The experiment in a line: Anti-atherosclerosis activity in ApoE knockout pro-atherogenic western diet-induced Tac mouse carotid artery ligation model of atherosclerosis assessed as reduction in neointima and media formation at 75 to 150 umol/kg/day mixed with food measured for 3 weeks. Type of assay: functional, organism-based.
Assay [22] deals with Group 10 secretory phospholipase A2 (Homo sapiens) (UniProt O15496).
Description: Inhibition of recombinant human sPLA2-10 using human HDL as substrate pretreated for 20 mins followed by substrate addition and measured after 60 mins by NEFA based assay

Group 10 secretory phospholipase A2 (Mus musculus), sequence (Q9QXX3 whole entry): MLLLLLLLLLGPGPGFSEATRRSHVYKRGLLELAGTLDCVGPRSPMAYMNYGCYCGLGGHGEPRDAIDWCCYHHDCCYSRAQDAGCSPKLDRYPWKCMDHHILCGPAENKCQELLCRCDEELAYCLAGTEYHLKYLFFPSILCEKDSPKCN
Phospholipase A2, membrane associated (Homo sapiens), sequence (P14555 whole entry): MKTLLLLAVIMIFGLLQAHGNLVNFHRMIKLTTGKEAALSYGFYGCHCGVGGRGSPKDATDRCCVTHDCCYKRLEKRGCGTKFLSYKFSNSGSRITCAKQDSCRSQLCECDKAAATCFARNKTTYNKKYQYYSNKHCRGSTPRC

On to `NC(=O)c1cc2ccc(OC(F)(F)F)cc2n1-c1ccc(=O)n(CCC(=O)O)c1`, for which the IC50 in [1] turned out to be 4800 nM. For the same compound, the inhibition result in [2] and in assay [3] was “inactive” each time.

Consider `CC(CC(=O)O)c1cccc(-n2c(C(N)=O)cc3ccc(OC(F)(F)F)cc32)n1` (stereo in doubt; (-)-17), for which the result with Mus musculus [4], in the assay with Mus musculus [8], with Mus musculus [9], in the assay with Mus musculus [10], in the assay on Mus musculus [11] and in the assay with Mus musculus [12] was inactive. Besides, the result in the assay with Mus musculus [18], in the assay on Mus musculus [19], with Mus musculus [20] and with Mus musculus [21] was inactive. For the same compound, the results for the Ratio IC50 in the assay filed under Homo sapiens [5] and in the assay listed under Homo sapiens [6] were 45 and 390, respectively. Further, the IC90 in assay [7] is 820 nM; in assay [22] it was 362 nM. The result in the assay with Mus musculus [13], in the assay with Mus musculus [14], in the assay on Mus musculus [15], in the assay with Mus musculus [16] and with Mus musculus [17] was Active.
